Laboratory results as given in the NIST ThermoML archive (doi:10.1021/je900437b).

Assay: xn = mol fraction of the nth substance listed
Conditions: 101 kPa, Liquid; for speed of sound: Sing-around technique in a fixed-path interferometer; for mass density: Vibrating tube method

CC(C)(N)CO [2-amino-2-methylpropan-1-ol] + NCCO
Conditions	mass density [kg/m3]	speed of sound [m/s]
293.15 K, x2 = 0	936.751	1501.4
293.15 K, x2 = 0.141	944.932	1525.9
293.15 K, x2 = 0.2691	953.001	1550.2
293.15 K, x2 = 0.3862	961.121	1574
293.15 K, x2 = 0.4939	969.165	1597.6
293.15 K, x2 = 0.5933	977.051	1621.2
293.15 K, x2 = 0.6869	984.969	1645.1
293.15 K, x2 = 0.7724	992.742	1668.2
293.15 K, x2 = 0.8532	1000.62	1691
293.15 K, x2 = 0.9268	1008.22	1712.6
298.15 K, x2 = 0	932.596	1483.4
298.15 K, x2 = 0.141	940.731	1508.3
298.15 K, x2 = 0.2691	948.799	1533
298.15 K, x2 = 0.3862	956.918	1557.1
298.15 K, x2 = 0.4939	964.959	1580.9
298.15 K, x2 = 0.5933	972.875	1604.7
298.15 K, x2 = 0.6869	980.811	1628.8
298.15 K, x2 = 0.7724	988.58	1652
298.15 K, x2 = 0.8532	996.465	1674.8
298.15 K, x2 = 0.9268	1004.08	1696.5
303.15 K, x2 = 0	928.395	1461.2
303.15 K, x2 = 0.141	936.493	1486.9
303.15 K, x2 = 0.2691	944.603	1512.3
303.15 K, x2 = 0.3862	952.718	1537.1
303.15 K, x2 = 0.4939	960.768	1561.6
303.15 K, x2 = 0.5933	968.682	1585.9
303.15 K, x2 = 0.6869	976.624	1610.5
303.15 K, x2 = 0.7724	984.413	1634.3
303.15 K, x2 = 0.8532	992.305	1657.7
303.15 K, x2 = 0.9268	999.98	1679.9
308.15 K, x2 = 0	924.174	1442.4
308.15 K, x2 = 0.141	932.236	1468.5
308.15 K, x2 = 0.2691	940.355	1494.4
308.15 K, x2 = 0.3862	948.482	1519.5
308.15 K, x2 = 0.4939	956.545	1544.3
308.15 K, x2 = 0.5933	964.465	1569
308.15 K, x2 = 0.6869	972.442	1593.8
308.15 K, x2 = 0.7724	980.259	1617.7
308.15 K, x2 = 0.8532	988.206	1641.2
308.15 K, x2 = 0.9268	995.885	1663.6
313.15 K, x2 = 0	919.945	1423.8
313.15 K, x2 = 0.141	927.969	1450.4
313.15 K, x2 = 0.2691	936.091	1476.5
313.15 K, x2 = 0.3862	944.248	1501.9
313.15 K, x2 = 0.4939	952.319	1527
313.15 K, x2 = 0.5933	960.252	1551.9
313.15 K, x2 = 0.6869	968.25	1576.9
313.15 K, x2 = 0.7724	976.093	1601
313.15 K, x2 = 0.8532	984.066	1624.7
313.15 K, x2 = 0.9268	991.791	1647.3
318.15 K, x2 = 0	915.702	1405.3
318.15 K, x2 = 0.141	923.687	1432.2
318.15 K, x2 = 0.2691	931.816	1458.6
318.15 K, x2 = 0.3862	940.009	1484.3
318.15 K, x2 = 0.4939	948.077	1509.7
318.15 K, x2 = 0.5933	956.017	1534.8
318.15 K, x2 = 0.6869	964.037	1559.9
318.15 K, x2 = 0.7724	971.917	1584.1
318.15 K, x2 = 0.8532	979.896	1608
318.15 K, x2 = 0.9268	987.66	1630.8
323.15 K, x2 = 0	911.431	1386.9
323.15 K, x2 = 0.141	919.381	1414.2
323.15 K, x2 = 0.2691	927.518	1440.8
323.15 K, x2 = 0.3862	935.735	1466.7
323.15 K, x2 = 0.4939	943.814	1492.3
323.15 K, x2 = 0.5933	951.753	1517.7
323.15 K, x2 = 0.6869	959.804	1542.9
323.15 K, x2 = 0.7724	967.721	1567.2
323.15 K, x2 = 0.8532	975.738	1591.3
323.15 K, x2 = 0.9268	983.527	1614.4
